In patent US6573248B2, “Monocyclic L-nucleosides, analogs and uses thereof” (ICN Pharmaceuticals, Inc., priority 1996, dated 2003):

**Q.** For NC(=O)c1nn([C@H]2O[C@@H](CO)[C@H](O)[C@@H]2O)nc1C(N)=O [Compound 32, 2-β-L-Ribofuranosyl-1,2,3-triazole-4,5-dicarboxamide], which melting point is on record?
**A.** 210 to 212 °C

**Q.** Which melting point does the source give for NC(=O)c1cn([C@H]2O[C@@H](CO)[C@H](O)[C@@H]2O)ccc1=O [Compound 34, 1-β-L-ribofuranosylpyridine-4-one-3-carboxamide] here?
**A.** 209 to 211 °C

**Q.** Which melting point does the source give for Cc1cc(=O)[nH]c(=O)n1[C@H]1O[C@@H](CO)[C@H](O)[C@@H]1O [Compound 41, 1-β-L-Ribofuranosyl-6-methyluracil] here?
**A.** 175 to 177 °C

**Q.** Which melting point does the source give for NC(=O)c1ncn([C@H]2O[C@@H](CO)[C@H](O)[C@@H]2O)c1C(N)=O [Compound 48, 1-β-L-Ribofuranosylimidazole-4,5-dicarboxamide] here?
**A.** 224 to 226 °C

**Q.** Which melting point does the source give for NC(=O)c1nc([C@H]2O[C@@H](CO)[C@H](O)[C@@H]2O)n[nH]1 [Compound 68, 3-β-L-Ribofuranosyl-1,2,4-triazole-5-carboxamide] here?
**A.** 193 to 195 °C
